Results: the NIST ThermoML archive (doi:10.1016/j.jct.2011.02.008)

Experiment: xn = mol fraction of the nth substance listed
Details: Liquid, Vibrating tube method

COC(=O)c1ccccc1 [methyl benzoate] + CCCCCCO
mass density [kg/m3]
Details | x1 = 0.1004 | x1 = 0.2007 | x1 = 0.3007 | x1 = 0.4013 | x1 = 0.5005 | x1 = 0.6009 | x1 = 0.7 | x1 = 0.8008 | x1 = 0.9009
298.15 K, 10000 kPa | – | – | – | – | 955.1 | 982 | 1008.4 | 1035.4 | 1062.3
298.15 K, 15000 kPa | 851.5 | 878 | 904.9 | 931.7 | 958.3 | 985.1 | 1011.5 | 1038.5 | 1065.3
298.15 K, 20000 kPa | 854.5 | 881.1 | 907.9 | 934.7 | 961.3 | 988.1 | 1014.5 | 1041.5 | 1068.3
298.15 K, 25000 kPa | 857.5 | 884.1 | 910.9 | 937.7 | 964.2 | 991 | 1017.4 | 1044.4 | 1071.2
298.15 K, 30000 kPa | 860.4 | 886.9 | 913.8 | 940.5 | 967.1 | 993.9 | 1020.3 | 1047.2 | 1074
298.15 K, 35000 kPa | 863.2 | 889.7 | 916.6 | 943.3 | 969.9 | 996.6 | 1023 | 1049.9 | 1076.7
298.15 K, 40000 kPa | 865.9 | 892.5 | 919.3 | 946.1 | 972.6 | 999.3 | 1025.7 | 1052.6 | 1079.4
298.15 K, 45000 kPa | 868.6 | 895.1 | 921.9 | 948.7 | 975.3 | 1002 | 1028.4 | 1055.3 | 1082
298.15 K, 50000 kPa | 871.1 | 897.7 | 924.5 | 951.3 | 977.8 | 1004.6 | 1031 | 1057.9 | 1084.6
298.15 K, 55000 kPa | 873.7 | 900.2 | 927.1 | 953.9 | 980.4 | 1007.2 | 1033.5 | 1060.4 | 1087.1
298.15 K, 60000 kPa | 876 | 902.5 | 929.4 | 956.2 | 982.7 | 1009.5 | 1035.9 | 1062.7 | 1089
308.15 K, 100 kPa | 834 | 860.4 | 886.9 | 913.6 | 939.9 | 966.6 | 993 | 1019.9 | 1046.6
308.15 K, 1000 kPa | 834.6 | 861.1 | 887.5 | 914.2 | 940.6 | 967.2 | 993.7 | 1020.5 | 1047.2
308.15 K, 5000 kPa | 837.5 | 864 | 890.4 | 917.1 | 943.4 | 970 | 996.4 | 1023.2 | 1049.9
308.15 K, 10000 kPa | 841 | 867.4 | 893.8 | 920.5 | 946.8 | 973.4 | 999.7 | 1026.5 | 1053.1
308.15 K, 15000 kPa | 844.3 | 870.7 | 897.1 | 923.7 | 950 | 976.6 | 1003 | 1029.7 | 1056.4
308.15 K, 20000 kPa | 847.5 | 873.9 | – | – | – | – | – | – | –
